In PMC8348310, “Antioxidants Isolated from Elaeagnus umbellata (Thunb.) Protect against Bacterial Infections and Diabetes in Streptozotocin-Induced Diabetic Rat Model” (Molecules, 2021):

Experiments:
Format in all cases: in vivo, Sprague Dawley adult albino rats
[1] = system: STZ-induced diabetic rats; test: STZ-induced diabetic rat model: serum biochemical parameters (liver, renal, lipid profile, HbA1c)
Method: (§1) All the animals were separated into nine groups having eight animals each (Table 1). In the current investigational study STZ-induced diabetic model was used to evaluate the anti-hyperglycemic and anti-hyperlipidemic activity of isolated compound morin in chronic multiple dose experiment. All the animals were treated with their respective treatments for 21 days starting daily at 09:00 am. The fasting blood glucose levels were determined at 0, 4th, 7th, 10th, 15th, and 21st days with glucometer from the tail vein. Changes in the body weight were recorded for untreated control, diabetic, and treated groups in fasting condition from day 1 to day 21 of experimental period and are presented as % increase in body weight.
(§2) According to the reported protocol diabetes was induced into Sprague Dawley adult albino rats by intraperitoneal injection of STZ (50 mg/kg body weight). Blood samples were collected from the tail vein through glucometer strips by means of SD glucometer and the level of blood glucose was measured 72 h after STZ injection. Normal control groups were given normal saline (8 mL/kg, p.o.) as a vehicle, while isolated compound morin to the treatment groups from 3 days after STZ administration for 3 weeks. Animals with blood glucose levels higher than 300 mg/dL were considered diabetic. During the experiment the blood glucose level and body weights were measured.
On 21st day of in vivo antidiabetic activity, all the animals were anesthetized by intraperitoneal (IP) injection of pentobarbital sodium (35 mg/kg body weight) and euthanized by means of cervical decapitation according to the ARRIVE guidelines. Blood samples were collected by cardiac puncture and transferred to EDTA containing tubes. Blood was centrifuged at 3500 rpm for 10 min for the separation of serum. Biochemical parameters like serum alkaline phosphatase (ALP), serum glutamate pyruvate transaminase (SGPT), serum glutamate oxaloacetate transaminase (SGOT) and lipid parameters like total cholesterol (TC), triglycerides (TG), low-density lipoproteins (LDL), high-density lipoprotein (HDL), and serum creatinine in serum were assessed by using Biochemistry analyzer (PS-520; Shenzhen Procan Electronics-China) using diagnostic kits (Reactivos, GPL Barcelona, Spain). According to the reported protocol an enzyme-linked immunosorbent assay (ELISA) kit was used to evaluate the level of glycosylated hemoglobin (HbA1c).

[2] = system: STZ-induced diabetic rats; test: STZ-induced diabetic rat model: fasting blood glucose and body weight
Method: Sprague Dawley adult albino rats (body weight range = 170–200 g) were used in in vivo studies. The animals were purchased from Rifah Institute of Pharmaceutical Sciences Islamabad. The entire animals were given food and fresh water ad libitum. The animals were adjusted at room temperature around 22–25 °C. The animals were housed three rats per cage and maintained with light/dark cycle of about 12 h. All the in vivo procedures were carried out according to the ARRIVE guidelines and approval was taken from the Departmental Animal Ethical Committee (DAEC/2019/1), University of Malakand.
as §1, §2

[3] = system: STZ-induced diabetic rats; test: Antioxidant enzymes and oxidative stress markers in pancreas tissue homogenates of STZ-induced diabetic rats
Method: The pancreas tissue (1 g) was isolated from Sprague Dawley rats, washed with cold saline solution and blotted dried. A weighed portion of the pancreas tissue was homogenized on ice and then centrifuged for 15 min at 3500 rpm at 4 °C. The supernatant was then taken and stored at −20 °C until assessed for different enzymes.
The activities of reduced glutathione (GSH) level were determined in the pancreatic tissues according to the previously established method. About 300 µL of tissue supernatant was centrifuged for 5 min at 3500 rpm following deproteinization with 300 µL of 10% trichloroacetic acid. In total, 200 µL of the resulting supernatant of each sample (at concentrations 2, 5, 10, 15, 30, and 50 µg/mL) was mixed with 50 µL of Ellman’s reagent (5,5′-dithiobis-(2-nitro-benzoic acid)) (DTNB) then centrifuged at 3000 rpm for 15 min. The absorbance was recorded at 412 nm. A series of standards treated in a similar way were also run to determine the glutathione content. The amount of glutathione is expressed as µmole/mg of tissue protein.
. […] The pink colored TBARS was measured photometrically at 532 nm and tissue MDA was determined from a standard curve and is expressed as nmole/mg of tissue protein. […]

[4] = system: STZ-induced diabetic rats; test: Pancreas histopathological assessment (H & E)
Source text: For histopathological assessment, the pancreas tissues were removed immediately and washed with cold saline solution to remove the blood. Finally, the pancreas portions were fixed in 10% formalin, dehydrated with mixture of ethanol/xylene and then fixed with paraffin. Staining of tissue slides was done with hematoxylin and eosin (H & E) dye through automatic slide stainer (Sakura Tissue-Tek® DRS™ 2000; Tokyo, Japan). According to the reported assay, the stained slides were observed under microscope to see any variation in pancreatic tissue architecture of STZ-induced diabetic group and treated (glibenclamide/morin) groups.

[5] = glibenclamide 0.5 mg/kg, morin 15, 30, and 50 mg/kg, vs diabetic control rats
[6] = glibenclamide 5 mg/kg, morin 15, 30, and 50 mg/kg body weight, serum, day 21, vs diabetic control

`O=c1c(O)c(-c2ccc(O)cc2O)oc2cc(O)cc(O)c12` [Morin, 2-(2,4-Dihydroxyphenyl)-3,5,7-trihydroxychromen-4-one] was tested, and the HDL cholesterol [1, 5] was “significantly increased (p < 0.01)”, the HbA1c level [1, 5] was “significant decrease (p < 0.01; p < 0.001)” and the LDL level [1, 5] was “significant decrease (p < 0.01; p < 0.001)”. The TC level [1, 5] was “significant decrease (p < 0.01; p < 0.001)”, the TG level [1, 5] was “significant decrease (p < 0.01; p < 0.001)” and the serum creatinine level ([1]; glibenclamide 5 mg/kg, morin 15, 30, and 50 mg/kg body weight, day 21, vs diabetic control) was “significantly reduced (p < 0.01; p < 0.001)”. For the same molecule, the ALP level [1, 6] was “significantly reduced (p < 0.01; p < 0.001)”, the SGOT level [1, 6] was “significantly reduced (p < 0.01; p < 0.001)” and the SGPT level [1, 6] was “significantly reduced (p < 0.01; p < 0.001)”. For the same molecule, the body weight gain ([2]; morin 10 mg/kg body weight) was “significant (p < 0.01) increases”, the blood glucose level ([2]; morin 2 and 5 mg/kg body weight) was “slowly reduce blood glucose level” and the glucose level ([2]; morin 10, 15, 30, and 50 mg/kg body weight, compared to the diabetic control group) was “comparable decline in glucose level”. The body weight gain ([2]; morin 15, 30, and 50 mg/kg body weight) was “significant (p < 0.001) improvement”, the blood glucose level ([2]; morin oral 30, 15, 50 mg/kg body weight, vs diabetic control) was “significant (p ˂ 0.01) decrease” and the “MDA level (lipid peroxidation)” value ([3]; morin 2, 5, 10, 15, 30, and 50 µg/kg body weight, pancreas tissue homogenates) was “significantly (p < 0.05, p < 0.01, p < 0.001) decreased”. The GPx activity ([3]; morin, pancreatic tissues homogenates of diabetic rats) was “significantly increased”, the pancreas histopathology ([4]; morin 2, 5 mg/kg orally) was “did not show restoration of pancreatic tissue” and the pancreas histopathology ([4]; morin 10, 15 mg/kg orally) was “significant dose dependent improvement in cellular architecture”. The pancreas histopathology ([4]; morin 30, 50 mg/kg orally) was “normal histological pattern of pancreas”.
